From EPA's ToxRefDB 2 come the findings set out here.

By NOAEL is commonly meant the highest tested level that showed no adverse finding. What is called LOAEL is the lowest tested level that showed an adverse finding.

The test system of data set [1] is mouse. To be noted: Combined chronic toxicity/carcinogenicity, b6c3f1, Oral, Feed, dose end: 24 month, group: systemic.
Data set [2] relates to mouse. Conditions: Subchronic oral toxicity in rodents, b6c3f1, Feed, dose end: 13 week, group: systemic.
Data set [3] relates to mouse. Conditions: Subchronic oral toxicity in rodents, Feed, dose end: 13 week, group: systemic, systemic / in life observation / body weight / body weight.
For data set [4], the system named is dog. To be noted: Chronic toxicity, beagle, Oral, Feed, dose end: 53 week, group: systemic.
The test system of data set [5] is rat. Conditions: Developmental neurotoxicity study; sprague dawley; Oral; Gavage/Intubation; dose end: 63 PND; group: cannot be grouped; systemic / in life observation / body weight / offspring (pup) weight.
For data set [6], the system named is rat. To be noted: Developmental neurotoxicity range-finding study; sprague dawley; Oral; Feed; group: cannot be grouped; developmental / offspring survival late / [other] / [other] + systemic / in life observation / body weight / litter weight.
For data set [7], the system named is dog. To be noted: Subchronic oral toxicity in nonrodent, beagle, Gavage/Intubation, dose end: 18 week, group: systemic, systemic / in life observation / body weight / body weight + systemic / in life observation / clinical signs / ataxia + systemic / in life ….
For data set [8], the system named is rat. To be noted: Chronic toxicity; other; Oral; Feed; dose end: 74 week; group: systemic; systemic / in life observation / body weight / body weight + systemic / in life observation / clinical signs / convulsions + systemic / in ….
In data set [9] the test system is mouse. Conditions: Subchronic oral toxicity in rodents, b6c3f1, Feed, dose end: 6 week, group: systemic, systemic / in life observation / mortality / mortality.
Data set [10] relates to mouse. To be noted: Chronic toxicity; b6c3f1; Oral; Feed; dose end: 80 week; group: systemic; systemic / in life observation / clinical signs / alopecia + systemic / in life observation / clinical signs / distended abdomens + systemic….
Data set [11] deals with rat. To be noted: Subchronic oral toxicity in rodents, other, Feed, dose end: 6 week, group: systemic, systemic / in life observation / body weight / body weight + systemic / in life observation / mortality / mortality.
Data set [12] has as its system rabbit. Conditions: Prenatal developmental toxicity study, dutch, Oral, Gavage/Intubation, dose end: 18 GD.
Data set [13] deals with rat. Conditions: Combined chronic toxicity/carcinogenicity; fischer; Oral; Feed; dose end: 24 month; group: systemic; systemic / clinical chemistry / alanine aminotransferase (alt/sgpt) / alanine aminotransferase (alt/sgpt) + systemic / in life observation….
In data set [14] the test system is mouse. To be noted: Carcinogenicity; Oral; Feed; dose end: 24 month; group: systemic; systemic / pathology microscopic / skin / fibrosarcoma + systemic / clinical chemistry / aminopyrine-n-demethylase / aminopyrine-n-….
Data set [15] relates to dog. Conditions: Subchronic oral toxicity in nonrodent, beagle, Capsule, dose end: 98 day, group: systemic.
The test system of data set [16] is mouse. To be noted: Carcinogenicity, cd1, Oral, Feed, dose end: 78 week, group: systemic.
Data set [17] relates to rat. To be noted: Subchronic oral toxicity in rodents, sprague dawley, Feed, dose end: 13 week, group: systemic.
Data set [18] relates to rat. Conditions: Combined chronic toxicity/carcinogenicity, sprague dawley, Oral, Feed, dose end: 24 month, group: systemic.
Data set [19] deals with dog. To be noted: Chronic toxicity, beagle, Oral, Capsule, dose end: 104 week, group: systemic.
Setting [20] is: systemic / pathology microscopic / kidney / vacuolization.
[21] abbreviates: systemic / pathology microscopic / kidney / vacuolization + systemic / in life observation / body weight / body weight + systemic / ….
[22] abbreviates: systemic / in life observation / body weight / body weight.
Setting [23] is: systemic / in life observation / clinical signs / pupillary function (dilation or constriction).
Where [24] appears, read: systemic / in life observation / clinical signs / pupillary function (dilation or constriction) + systemic / clinical chemistry / protein / ….
Setting [25] is: group: developmental, developmental / developmental malformation / bone / [other] + developmental / developmental malformation / bone / full supernumerary + ….
[26] abbreviates: group: maternal, reproductive / reproductive performance / aborted / aborted + reproductive / reproductive performance / resorptions / resorptions + systemic….
Setting [27] is: systemic / pathology gross / liver / enlarged + systemic / pathology microscopic / liver / glycogen deposition.
Where [28] appears, read: systemic / pathology gross / liver / enlarged + systemic / pathology microscopic / liver / glycogen deposition + systemic / clinical ….
[29] abbreviates: systemic / clinical chemistry / aspartate aminotransferase (ast/sgot) / aspartate aminotransferase (ast/sgot).
The mark [30] stands for this setting: systemic / in life observation / body weight / body weight + systemic / organ weight / liver / relative to body weight + systemic / clinical….
The mark [31] stands for this setting: systemic / in life observation / clinical signs / emesis + systemic / in life observation / clinical signs / salivation + systemic / in life….
Setting [32] is: systemic / in life observation / clinical signs / soft stools + systemic / in life observation / clinical signs / emesis.

Molecules are shown by their SMILES. Where only a bound is given, the exact number is not on record here.

Take `O=C(O)c1cccc(Cl)n1` [6-Chloro-2-picolinic acid]: the figures for the NOAEL in data set [1] (setting [20]), in data set [2] (setting [21]) and in [3] were 300 mg/kg/day, 700 mg/kg/day and 400 mg/kg/day, respectively. In addition, the LOAEL in data set [1] (systemic / pathology microscopic / kidney / vacuolization + systemic / in life observation / body weight / body weight) came to 900 mg/kg/day; in data set [2] (setting [20]), 900 mg/kg/day; in data set [3] it was 800 mg/kg/day. Moreover, the LEL in data set [1] (setting [21]) was 900 mg/kg/day; in data set [2] (setting [22]), 400 mg/kg/day; in data set [3] it was 800 mg/kg/day. Moreover, the NEL came out at 300 mg/kg/day in [1] (systemic / pathology microscopic / liver / carcinoma + systemic / organ weight / liver / absolute + systemic / organ weight / liver / …), 150 mg/kg/day in [2] (setting [22]) and 400 mg/kg/day in data set [3].
With `CC[C@H](C)[C@H]1O[C@]2(C=C[C@@H]1C)C[C@@H]1C[C@@H](C/C=C(\C)[C@@H](O[C@H]3C[C@H](OC)[C@@H](O[C@H]4C[C@H](OC)[C@@H](O)[C@H](C)O4)[C@H](C)O3)[C@@H](C)/C=C/C=C3\CO[C@@H]4[C@H](O)C(C)=C[C@@H](C(=O)O1)[C@]34O)O2.CO[C@H]1C[C@H](O[C@H]2[C@H](C)O[C@@H](O[C@@H]3/C(C)=C/C[C@@H]4C[C@@H](C[C@]5(C=C[C@H](C)[C@@H](C(C)C)O5)O4)OC(=O)[C@@H]4C=C(C)[C@@H](O)[C@H]5OC/C(=C\C=C\[C@@H]3C)[C@]54O)C[C@@H]2OC)O[C@@H](C)[C@@H]1O` [Abamectin], the LEL was 0.5 mg/kg/day in data set [4] (setting [23]), 0.4 mg/kg/day in data set [5], 0.876 mg/kg/day in [6] and 0.5 mg/kg/day in data set [7]. The LOAEL came out at 0.5 mg/kg/day in data set [4] (setting [23]), 0.4 mg/kg/day in data set [5], 0.876 mg/kg/day in data set [6] and 0.5 mg/kg/day in data set [7]. For the same compound, the NEL in [4] (setting [24]) came to 0.25 mg/kg/day; in data set [5] it was 0.2 mg/kg/day; in [6], 0.604 mg/kg/day; in data set [7], 0.25 mg/kg/day. The NOAEL amounted to 0.25 mg/kg/day in data set [4] (setting [24]), 0.2 mg/kg/day in data set [5], 0.604 mg/kg/day in [6] and 0.25 mg/kg/day in data set [7].
For the compound `ClC1=C(Cl)[C@]2(Cl)[C@H]3[C@H]([C@@H]4C=C[C@H]3C4)[C@@]1(Cl)C2(Cl)Cl` [Aldrin], in [8], the LEL was found to be 1.5 mg/kg/day, the LOAEL stood at 1.5 mg/kg/day, the NEL was < 1.5 mg/kg/day and the no-observed-adverse-effect level (NOAEL) was < 1.5 mg/kg/day. In addition, in [9], the LEL is 6 mg/kg/day, the LOAEL is > 12 mg/kg/day, the NEL was 3 mg/kg/day and the NOAEL was ≥ 12 mg/kg/day. Moreover, in data set [10], the LEL worked out at 0.45 mg/kg/day, the LOAEL is > 0.9 mg/kg/day, the NEL was < 0.45 mg/kg/day and the NOAEL is ≥ 0.9 mg/kg/day. Further, in data set [11], the LEL came to 8 mg/kg/day, the LOAEL was > 16 mg/kg/day, the NEL is 4 mg/kg/day and the NOAEL is ≥ 16 mg/kg/day.
Turning to `Cn1cc(-c2ccccc2)c(=O)c(-c2cccc(C(F)(F)F)c2)c1` [Fluridone], the LEL in data set [12] (setting [25]) was 750 mg/kg/day; in data set [12] (setting [26]), 300 mg/kg/day; in data set [13], 25.1 mg/kg/day; in [14] it was 50 mg/kg/day. For the same compound, the lowest observed adverse effect level (LOAEL) in data set [12] (setting [25]) was > 750 mg/kg/day; in data set [12] (setting [26]), 300 mg/kg/day; in data set [13], > 80.8 mg/kg/day; in data set [14], > 50 mg/kg/day. The NEL worked out at 300 mg/kg/day in [12] (setting [25]), 125 mg/kg/day in [12] (setting [26]), 7.65 mg/kg/day in data set [13] and 15 mg/kg/day in data set [14]. Also, the NOAEL was ≥ 750 mg/kg/day in data set [12] (setting [25]), 125 mg/kg/day in data set [12] (setting [26]), ≥ 80.8 mg/kg/day in [13] and ≥ 50 mg/kg/day in data set [14].
Regarding `CC(C)Oc1cccc(NC(=O)c2ccccc2C(F)(F)F)c1` [Flutolanil], the LEL in data set [15] (setting [27]) was 400 mg/kg/day; in [16] (systemic / pathology microscopic / liver / vacuolization), 162 mg/kg/day; in data set [17] (setting [29]), 37 mg/kg/day; in data set [18] (setting [30]), 460 mg/kg/day; in data set [19] (setting [32]) it was 50 mg/kg/day. The LOAEL in data set [15] (setting [27]) was 400 mg/kg/day; in [16] (systemic / in life observation / body weight / body weight gain), 839 mg/kg/day; in [17] (systemic / organ weight / liver / absolute + systemic / organ weight / liver / relative to body weight), 339 mg/kg/day; in data set [18] (systemic / in life observation / body weight / body weight + systemic / organ weight / liver / relative to body weight), 460 mg/kg/day; in data set [19] (setting [31]) it was 250 mg/kg/day. Moreover, the NEL in [15] (setting [28]) was 80 mg/kg/day; in [16] (systemic / pathology microscopic / liver / vacuolization + systemic / in life observation / body weight / body weight gain), 32 mg/kg/day; in [17] (setting [29]) it was < 37 mg/kg/day; in [18] (systemic / organ weight / liver / relative to body weight), 86.9 mg/kg/day; in data set [19] (setting [32]) it was < 50 mg/kg/day. The NOAEL is 80 mg/kg/day in data set [15] (setting [28]); 168 mg/kg/day in data set [16] (systemic / in life observation / body weight / body weight gain + systemic / organ weight / liver / absolute + systemic / organ weight / …); 44 mg/kg/day in data set [17] (systemic / organ weight / liver / absolute + systemic / organ weight / liver / relative to body weight + systemic / clinical chemistry / …); 86.9 mg/kg/day in [18] (setting [30]); 50 mg/kg/day in [19] (setting [31]).
